The values that follow come from patent US20100048950A1 (BOEHRINGER INGELHEIM INTERNATIONAL GMBH, priority 2007, published 2010).

In one data set the test system is glucocorticoid receptor. Description: Agonist activity in one or more of the above assays (GR cell assays). To be noted: in one or more of the above assays (assay not specified). Format: cell-based. The method, then: Dexamethasone, a synthetic ligand to the glucocorticoid receptor (GR), induces expression of aromatase in human foreskin fibroblast cells. The activity of aromatase is measured by the conversion of testosterone to estradiol in culture media.
Human foreskin fibroblast cells (ATCC Cat. No. CRL-2429, designation CCD112SK) are plated on 96 well plates at 50,000 cells per well 5 days before use, in Iscove's Modified Dulbecco's Media (GibcoBRL Life Technologies Cat No. 12440-053) supplemented with 10% charcoal filtered FBS (Clonetech Cat No. SH30068) and Gentamycin (GibcoBRL Life Technologies Cat. No. 15710-064). On the day of the experiment, the media in the wells is replaced with fresh media. Cells are treated with test compounds to final concentrations of 10^−5 M to […], and testosterone to a final concentration of 300 ng/mL. Each well has a total volume of 100 μL. Samples are made in duplicates. Control wells include: (a) wells that receive testosterone only, and (b) wells that receive testosterone plus 2 μM of dexamethasone to provide maximum induction of aromatase. Plates are incubated at 37° C. overnight (15 to 18 hours), and supernatants are harvested at the end of incubation. Estradiol in the supernatant is measured using ELISA kits for estradiol (made by ALPCO, obtained from American Laboratory Products Cat. No. 020-DR-2693) according to the manufacture's instruction. The amount of estradiol is inversely proportional to the ELISA signals in each well. The extent of aromatase induction by test compounds is expressed as a relative percentage to dexamethasone. EC50 values of test compounds are derived by non-linear curve fitting.
Human foreskin fibroblast cells produce IL-6 in response to stimulation by pro-inflammatory cytokine IL-1.
Human foreskin fibroblast cells (ATCC Cat. No. CRL-2429) are plated on 96 well plates at 5,000 cells per well the day before use, in Iscove's Modified Dulbecco's Media (GibcoBRL Life Technologies Cat. No. 12440-053) supplemented with 10% charcoal filtered FBS (Clonetech Cat. No. SH30068) and Gentamycin (GibcoBRL Life Technologies Cat. No. 15710-064). On the next day, media in the wells is replaced with fresh media. Cells are treated with IL-1 (rhIL-1α, R&D Systems Cat. No. 200-LA) to a final concentration of 1 ng/mL, and with test compounds to final concentrations of 10^−5 M to 10^−8 M, in a total volume of 200 μL per well. Samples are done in duplicates. […] Positive control wells receive IL-1 only and represent maximum (or 100%) amount of IL-6 production. Plates are incubated at 37° C. overnight (15 to 18 hours), and supernatants are harvested at the end of incubation. IL-6 levels in the supernatants are determined by the ELISA kits for IL-6 (MedSystems Diagnostics GmbH, Vienna, Austria, Cat. No. BMS213TEN) according to manufacture's instructions. The extent of inhibition of IL-6 by test compounds is expressed in percentage relative to positive controls. IC50 values of test compounds are derived by non-linear curve fitting.
Evaluation of agonist or antagonist activity of compounds binding to the glucocorticoid receptor may be determined by any of the assays.
Testing of compounds for agonist or antagonist activity in induction of tyrosine aminotransferase (TAT) in rat hepatoma cells.
H4-II-E-C3 cells were incubated overnight in 96 well plates (20,000 cells/100 μL/well) in MEM medium containing 10% heat inactivated FBS and 1% nonessential amino acids. On the next day, cells were stimulated with the indicated concentrations of dexamethasone or test compound (dissolved in DMSO, final DMSO concentration 0.2%) for 18 hours. Control cells were treated with 0.2% DMSO. After 18 hours, the cells were lysed in a buffer containing 0.1% Triton X-100 and the TAT activity was measured in a photometric assay using tyrosine and alpha-ketoglutarate as substrates. […]

Data set [1] concerns the target T1, human glucocorticoid receptor (GR) complex (Homo sapiens, UniProt P04150).
T1 construct: made in house; host or cells: insect expression system (baculovirus lysate)
T1 sequence (P04150 1-777): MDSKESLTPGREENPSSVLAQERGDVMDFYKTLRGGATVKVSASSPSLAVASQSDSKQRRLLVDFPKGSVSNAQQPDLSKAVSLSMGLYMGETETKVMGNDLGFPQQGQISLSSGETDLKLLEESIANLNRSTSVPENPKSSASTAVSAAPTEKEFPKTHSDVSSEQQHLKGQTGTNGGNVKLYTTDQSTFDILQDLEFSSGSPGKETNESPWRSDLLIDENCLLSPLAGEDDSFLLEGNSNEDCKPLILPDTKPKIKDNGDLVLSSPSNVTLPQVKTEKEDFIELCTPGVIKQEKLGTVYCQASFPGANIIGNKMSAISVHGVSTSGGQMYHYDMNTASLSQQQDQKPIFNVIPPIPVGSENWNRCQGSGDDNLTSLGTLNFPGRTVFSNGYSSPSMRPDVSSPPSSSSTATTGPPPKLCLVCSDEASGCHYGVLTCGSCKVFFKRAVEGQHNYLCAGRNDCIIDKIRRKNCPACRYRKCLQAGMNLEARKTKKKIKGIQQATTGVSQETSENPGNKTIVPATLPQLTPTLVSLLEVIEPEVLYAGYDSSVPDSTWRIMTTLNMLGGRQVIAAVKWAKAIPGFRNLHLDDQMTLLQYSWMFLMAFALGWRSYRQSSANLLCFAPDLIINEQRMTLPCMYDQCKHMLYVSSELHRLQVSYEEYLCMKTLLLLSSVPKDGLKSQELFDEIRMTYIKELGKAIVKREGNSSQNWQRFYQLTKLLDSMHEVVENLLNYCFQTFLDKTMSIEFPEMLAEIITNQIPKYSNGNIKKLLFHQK
The data set can be described thus: Glucocorticoid receptor competitive binding assay (fluorescence polarization). To be noted: competition with TAMRA-labeled dexamethasone, read-out: potent activity (IC50) in the GR binding assay. In short, it runs like this: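 Human GR complex in baculovirus insect-cell lysate (1:170) competed against 15 nM TAMRA-dexamethasone stock for 1 h at room temperature. Buffer: TES/KCl/molybdate/EDTA/CHAPS/glycerol/DTT, pH 7.4, 1% DMSO final. FP read at 550/580 nm; IC50 from 4-parameter logistic fit.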
Background: In fluorescence polarisation assays a small probe gives low polarisation when free and higher when bound to something large.

With `CC[C@@H](CNc1ccc(C)cc1C)NS(=O)(=O)c1c(N)cc(Cl)cc1Cl`, the melting point (commonly the temperature, or range, at which the solid turns liquid) came out at 151 °C. Regarding `Cc1cc(C)c(S(=O)(=O)NC(CNc2cccc3ccccc23)C(F)(F)F)c(C)c1` (centres unmarked) [2,4,6-Trimethyl-N-[2,2,2-trifluoro-1-(naphthalen-1-ylaminomethyl)ethyl]benzenesulfonamide], the “activity as an agonist of the glucocorticoid receptor function” value (“activity” for short) with glucocorticoid receptor was “activity as an agonist”. Moreover, the half-maximal inhibitory concentration (IC50) – broadly, the concentration that inhibits the measured activity by half – in data set [1] was ≤ 100 nM. On to `Cc1cc(C)c(S(=O)(=O)NC(CSc2cccc3ccccc23)C(F)(F)F)c(C)c1` (centres unmarked) [2,4,6-Trimethyl-N-[2,2,2-trifluoro-1-(naphthalen-1-ylsulfanylmethyl)ethyl]benzenesulfonamide], for which the “activity” value in the data set with glucocorticoid receptor was “activity as an agonist”. The IC50 in data set [1] was ≤ 100 nM. The matching figures for `CC[C@@H](CNc1cccc2ccccc12)NS(=O)(=O)c1c(N)cc(Cl)cc1Cl` [2-Amino-4,6-dichloro-N-[(S)-1-(naphthalen-1-ylaminomethyl)propyl]benzenesulfonamide]: “activity as an agonist” and ≤ 100 nM. In the same order, the values of `CC[C@@H](CNc1ccc(C)cc1C)NS(=O)(=O)c1c(N)cc(Cl)cc1Cl` [2-Amino-4,6-dichloro-N—{(S)-1-[(2,4-dimethylphenylamino)methyl]propyl}benzenesulfonamide] are “activity as an agonist” and ≤ 100 nM.

As for `Cc1cc(C)c(S(=O)(=O)NC(CNc2ccc(Cl)c3ccccc23)C(F)(F)F)c(C)c1` (centres unmarked) [N-{1-[(4-Chloronaphthalen-1-ylamino)methyl]-2,2,2-trifluoroethyl}-2,4,6-trimethylbenzenesulfonamide], in the data set with glucocorticoid receptor, the “activity” value was “activity as an agonist”. In addition, the IC50 in data set [1] was ≤ 100 nM. In the same order, the values of `Cc1cc(C)c(S(=O)(=O)NC(CNc2cccc3c(C#N)cccc23)C(F)(F)F)c(C)c1` (centres unmarked) [N-{1-[(5-Cyanonephthalen-1-ylamino)methyl]-2,2,2-trifluoroethyl}-2,4,6-trimethyl-benzenesulfonamide] are “activity as an agonist” and ≤ 100 nM.

As for `CCN(CC(NS(=O)(=O)c1c(C)cc(C)cc1C)C(F)(F)F)c1cccc(C)c1` (centres unmarked) [N-{1-[(Ethyl-m-tolylamino)methyl]-2,2,2-trifluoroethyl}-2,4,6-trimethylbenzenesulfonamide], the 50% inhibitory concentration (IC50) in data set [1] was ≤ 100 nM. Still for that read-out and setting: the value for `CCN(CC(NS(=O)(=O)c1c(C)cc(C)cc1C)C(F)(F)F)c1ccccc1` (centres unmarked) [N-{1-[(Ethylphenylamino)methyl]-2,2,2-trifluoroethyl}-2,4,6-trimethylbenzenesulfonamide] was ≤ 100 nM.

`CC[C@@H](CNc1ccc(C)cc1C)NS(=O)(=O)c1c(C)cc(C)cc1C` [N-{(S)-1-[(2,4-Dimethylphenylamino)methyl]propyl}-2,4,6-trimethylbenzenesulfonamide]: the IC50 in data set [1] was ≤ 100 nM. The same measure, in the same setting: as for `CC[C@@](C)(CN(CCC#N)c1cccc2ccccc12)NS(=O)(=O)c1c(C)cc(C)cc1C` [N—((S)-1-{[(2-Cyanoethyl)naphthalen-1-ylamino]methyl}-1-methylpropyl)-2,4,6-trimethylbenzenesulfonamide], the figure is ≤ 100 nM.
